Experimental data taken from ChEMBL document CHEMBL1156829 (Proc Natl Acad Sci U S A, 2008).

How the values were obtained:
[1] = test system: Plasmodium falciparum; assay: NOVARTIS: Inhibition of Plasmodium falciparum 3D7 (drug-susceptible) proliferation in erythrocyte-based infection assay; assay type: functional, organism-based; conditions: Plasmodium falciparum, 3D7
[2] = NOVARTIS: Cytotoxicity against human hepatocellular carcinoma cell line (Huh7); assay type: toxicity, cell-based, Huh-7; conditions: Huh7 cells (hepatocellular carcinoma cell line)
[3] = test system: Plasmodium falciparum; assay: NOVARTIS: Inhibition of Plasmodium falciparum W2 (drug-resistant) proliferation in erythrocyte-based infection assay; assay type: functional, organism-based; conditions: Plasmodium falciparum, W2; read-out: EC50

| Structure (SMILES) | EC50 [1] [µM] | CC50 [2] [µM] | EC50 [3] [µM] |
| --- | --- | --- | --- |
| O=C(NCc1ccco1)C1CCN(S(=O)(=O)c2ccc(Cl)cc2)CC1 | 0.514 | > 100 | 0.355 |
| CCOC(=O)c1c(CSc2ccccc2)oc2cc(CN(C)C)c(O)c(Cl)c12 | 0.321 | 61.6 | 0.209 |
| COc1ccccc1N1CCN(C(=O)CCCCSc2nnc3c4cc(F)ccc4n(Cc4ccc(F)cc4)c3n2)CC1 | 0.265 | > 57.7 | 0.207 |
| O=C(c1cccc(Cl)c1)N1CCN(c2ccc([N+](=O)[O-])c(NC3CC3)c2)CC1 | 0.552 | > 100 | 0.34 |
| CCCc1c(C(=O)OCC)c2cc(O)ccc2n1-c1ccc(OC)cc1 | 0.133 | > 100 | 0.339 |
| O=C(Cc1ccccc1)NC(c1ccc(Cl)cc1)c1ccc2cccnc2c1O (centres undefined) | 0.209 | > 100 | 0.337 |
| COc1ccc(C2C(C(=O)Nc3cc(Cl)c(OC)cc3OC)c3ccccc3C(=O)N2C)cc1 (centres undefined) | 0.378 | > 100 | 0.333 |
| Nc1ccc(-c2nc3cc(Cc4ccc5[nH]c(-c6ccc(N)cc6)nc5c4)ccc3[nH]2)cc1 | 0.243 | 17.9 | 0.0634 |
| CN(C)c1ccc(C=CC(=O)NC(=O)c2ccccc2O)cc1 | 0.118 | > 100 | 0.358 |
| O=C1CC(c2ccccc2)CC2=C1C(c1ccccc1F)Nc1ccccc1N2 (centres undefined) | 0.462 | > 100 | 0.359 |
| CCC(=O)N(C)CCCNc1ccnc2cc(Cl)ccc12 | 0.467 | > 100 | 0.341 |
| CC(C)(C)CC(C)(C)Nc1c(-c2ccccc2OC(=O)c2ccc([N+](=O)[O-])cc2)nc2ccccn12 | 0.251 | 1.49 | 0.00528 |
| Cc1nc(NN=Cc2c(O)ccc3ccccc23)cc(N2CCCCC2)n1 | 0.609 | > 100 | 0.339 |
| CC(=O)Nc1ccc(-c2nc3c4ccccc4c4ccc(I)cc4c3[nH]2)cc1 | 0.296 | > 100 | 0.362 |
| CCOc1ccccc1-n1c(N)c(C(=O)Nc2ccc(C)cc2)sc1=S | 1.32 | > 100 | 0.361 |
| Cc1ccc(OCC(=O)Nc2cccc(C(=O)O)c2)c(Br)c1 | > 1.25 | > 10 | > 0.0349 |
| COc1ccccc1-n1nnnc1SCC(=O)Nc1cc([N+](=O)[O-])ccc1C | 0.651 | > 100 | 0.349 |
| O=C(Nc1ccc(Cl)cc1)c1c2c(nc3ccccc13)-c1ccccc1CC2 | 0.41 | > 100 | 0.338 |
| CCCCN(C(=O)Nc1c(C(C)C)cccc1C(C)C)C(CC)c1nc2ccccc2c(=O)n1-c1cccc(Cl)c1 (centres undefined) | > 1.25 | > 6.29 | < 0.0212 |
| CCC(C)CNC(=O)c1ccc(OC2CCN(CC3CCCCC3)CC2)c(Cl)c1 (centres undefined) | 0.0782 | > 13.2 | 0.0484 |
| O=C1C(NC2CCCC2)=C(N2CCOCC2)C(=O)c2ccccc21 | 0.119 | 37.9 | 0.139 |
| OCCCCCCCCCCC[n+]1ccccc1 | 0.133 | > 100 | 0.365 |
| C[N+]1(CC(=O)NNc2c3ccccc3nc3ccccc23)CCOCC1 | 0.637 | > 100 | 0.364 |

| Structure (SMILES) | EC50 [1] [µM] | CC50 [2] [µM] | EC50 [3] [µM] |
| --- | --- | --- | --- |
| CCCCOC(=O)C1=C(C)NC2=C(C(=O)CCC2)C1c1ccc(Cl)c(Cl)c1 (centres undefined) | 0.574 | > 100 | 0.359 |
| COc1ccc(C2CC(=O)C3=C(C2)NC(C)=C(C(=O)OC2CCCCC2)C3c2ccc(F)cc2)cc1OC (centres undefined) | 0.138 | 15.2 | 0.053 |
| O=C1C(NC2CCCC2)=C(N2CCCCC2)C(=O)c2ccccc21 | 0.0224 | 10.1 | 0.0342 |
| COc1cc(OC)c(Br)c(-n2c(C(C)N(CCC(C)C)C(=O)c3ccccc3C)nc3ccccc3c2=O)c1 (centres undefined) | > 1.25 | > 10 | < 0.0337 |
| COc1cc(CNc2ccc(N3CCCCC3)cc2)ccc1OCc1ccccc1F | 0.475 | > 100 | 0.335 |
| Cn1c(=O)n(Cc2ccccc2)c(=O)c2c1nc(SCC(=O)Nc1ccccc1)n2Cc1ccccc1 | 1.85 | > 100 | 0.362 |
| CN(C)CCNCc1cc(-c2ccnc3cc(Cl)ccc23)ccc1O | 0.12 | 45.6 | 0.152 |
| CCOC(=O)c1nnn(-c2nonc2N)c1-c1ccc(C)cc1 | 0.303 | > 100 | 0.367 |
| COC(=O)C1=C(C)NC2=C(C(=O)CC(c3ccccc3)C2)C1c1ccc(Cl)cc1 (centres undefined) | 1.22 | > 100 | 0.333 |
| CCOc1ccc(-c2cc(C)[n+](CCO)c(-c3ccc(OCC)cc3)c2)cc1 | 1.08 | > 100 | 0.352 |
| COc1ccc(C=NNc2nc3ccccc3[nH]2)cc1OC | 0.243 | 36.5 | 0.129 |
| CCC(C(=O)Oc1ccccc1-c1nc2cc(C)ccn2c1NC(C)(C)CC(C)(C)C)c1ccccc1 (centres undefined) | 0.894 | > 10 | 0.0347 |
| CCOC(=O)c1c(C)n(Cc2ccccc2)c2c1cc(O)c1c2c(-c2ccccc2)nn1-c1ccccc1 | 1.06 | > 100 | 0.345 |
| CCCOC(=O)C1=C(C)NC2=C(C(=O)CC(c3ccc(OC)c(OC)c3)C2)C1c1cccc(Br)c1 (centres undefined) | 0.322 | 21.6 | 0.0744 |
| Cc1ccnc(NC(c2ccncc2)c2ccc3cccnc3c2O)c1 (centres undefined) | 1 | > 100 | 0.357 |
| COc1cc(C(=O)ON=C(N)Cc2cccc3ccccc23)cc(OC)c1OC | 0.28 | 48.1 | 0.171 |
| CCOC(=O)CN(C)Cc1ccc2c(NC(=O)c3ccc(C)s3)c(C(=O)OC)sc2n1 | 0.766 | > 100 | 0.354 |
| O=C(Nc1ccc(-n2cccn2)cc1)C1CCN(CC=Cc2ccccc2)CC1 | 0.887 | > 99.8 | 0.344 |
| O=[N+]([O-])c1cccc(-c2ccc(C=NNc3nc4ccccc4[nH]3)o2)c1 | 0.379 | > 100 | 0.344 |
| O=C(CC1OC(=O)c2ccccc21)c1ccc(Cl)cc1 (centres undefined) | 0.717 | > 100 | 0.342 |
| CCOC(=O)c1cn(CC)c2cc(N3CCCCC3)c(F)cc2c1=O | 0.166 | > 100 | 0.336 |
| Cc1cc(NC(=O)C=Cc2ccccc2Cl)ccc1Br | 1.27 | > 100 | 0.344 |
| Cc1ccn2c(NC(C)(C)CC(C)(C)C)c(-c3ccccc3OC(=O)c3ccco3)nc2c1 | 0.828 | > 10 | 0.0341 |

| Structure (SMILES) | EC50 [1] [µM] | CC50 [2] [µM] | EC50 [3] [µM] |
| --- | --- | --- | --- |
| CC(C)(C)CC(C)(C)Nc1c(-c2ccccc2OC(=O)/C=C/c2ccccc2)nc2ccccn12 | 0.457 | > 10 | 0.034 |
| COc1ccccc1C1CC(=O)N2CN(Cc3ccccc3)CSC2=C1C#N (centres undefined) | 0.599 | > 100 | 0.337 |
| CCOC(=O)c1[nH]c(C)c(Cc2ccc(OCC)cc2)c1C | 0.279 | > 100 | 0.347 |
| O=C1C2C(C(=O)N1c1ccccc1F)C1(c3ccccc3)C(=O)C2(c2ccccc2)C(c2ccccc2)=C1c1ccccc1 (centres undefined) | 0.811 | > 100 | 0.344 |
| COc1cccc(C2Sc3ccccc3NC3=C2C(=O)c2ccccc23)c1 (centres undefined) | 0.577 | > 100 | 0.362 |
| CCCCNc1c2c(c(C#N)c3nc4ccccc4n13)CCC2 | 0.113 | > 100 | 0.367 |
| CCSCCOC(=O)C1=C(C)NC2=C(C(=O)CCC2)C1c1ccc(OC)c(Br)c1 (centres undefined) | 0.371 | > 100 | 0.36 |
| Cc1ccc(NC(=O)C2CSC(c3cccc(F)c3)N2C(=O)c2ccc(C(C)(C)C)cc2)cc1 (centres undefined) | 0.449 | > 100 | 0.349 |
| COc1ccc(C2=C(c3ccc(OC)cc3)C3(c4ccccc4)C(=O)C2(c2ccccc2)C2C(=O)N(c4cc(Cl)ccc4C)C(=O)C23)cc1 (centres undefined) | 0.447 | > 100 | 0.346 |
| CCC(C)NC(=O)c1nn(-c2ccc(OC)cc2)c(=O)c2ccccc12 (centres undefined) | 0.798 | > 100 | 0.353 |
| CC(=O)N(C1=C(N2CCC(C)CC2)C(=O)c2ccccc2C1=O)c1cccc(F)c1 | 0.241 | 66.4 | 0.233 |
| CCOC(=O)C1=C(C)N=c2sc(=Cc3ccccc3OC(C)=O)c(=O)n2C1c1ccc(OC)cc1 (centres undefined) | 0.515 | > 100 | 0.339 |
| C(=C1\C(c2ccccc2)=Nc2ccccc21)/c1c(-c2ccccc2)[nH]c2ccccc12 | 0.21 | > 10 | 0.0364 |
| CCOC(=O)C(Cc1ccc(O)cc1)NC1=CC(=O)C(=O)c2ccccc21 (centres undefined) | 0.305 | > 100 | 0.333 |
| COc1ccc(CNC(=O)C2CNCC2c2ccc(C(F)(F)F)cc2)cc1 (centres undefined) | 0.165 | 24.1 | 0.0857 |
| CN1CCc2c(sc3nc(SCc4ccc(Cl)cc4)n(-c4cccc(Cl)c4)c(=O)c23)C1 | 1.05 | > 100 | 0.363 |
| CCCN(CCC)C1=CC(=O)C(C(C)(C)C)=CC1=O | 0.216 | 50.9 | 0.171 |
| CC(C)(C)c1csc(NC(=O)c2ccc(S(=O)(=O)N3CCCCC3)cc2)n1 | > 12.5 | 49.1 | 0.175 |
| O=C1CN=C(c2ccccc2)c2cc(Cl)ccc2N1Cc1cc(=O)n2ccccc2n1 | 3.55 | > 100 | 0.344 |
| CCC(Oc1ccc(C(C)(C)CC)cc1C(C)(C)CC)C(=O)Nc1ccc([N+](=O)[O-])cc1O (centres undefined) | > 5.26 | > 100 | 0.348 |
| Oc1c(CN2CCN(Cc3ccc4cccnc4c3O)CC2)ccc2cccnc12 | 0.561 | > 89.3 | 0.318 |
| CCC1(C)CC(CCNCc2ccccc2O)(c2ccc(OC)cc2)CCO1 (centres undefined) | 0.455 | 21.4 | 0.0765 |
